Measured values taken from patent US20020058701A1 (priority 2000, published 2002).

How the values were obtained:
[1] = system: C57BL/ks diabetic (db/db) mice; assay: Glucose-lowering (plasma glucose) in diabetic db/db mice; format: in vivo
Method: (§1) Genetically altered obese diabetic mice (designated C57BL/ks diabetic or db/db) were purchased from the Jackson Laboratory (Bar Harbor, Me., USA), and served as experimental animals. Male animals between the ages of 8-9 weeks were employed in the studies described here. Animals were housed (4 mice/cage) under standard laboratory conditions at 22° C. and 50% relative humidity, and were maintained on a diet of Purina rodent chow and water ad libitum. Prior to treatment, blood was collected from the tail vein of each animal. Mice that had plasma glucose levels between 350 and 600 mg/dL were used. Each treatment group consisted of eight mice that were distributed so that the mean glucose levels were equivalent in each group at the start of the study. Db/db mice received, orally by gavage: the experimental compound administered at 62.5, 125, or 250 mg/kg/day (unless otherwise noted), or metformin administered at […] for 1-3 days. Test compounds were delivered in a liquid vehicle containing 0.25% (w/v) carboxymethyl-cellulose, 1% (v/v) Tween […] (polyoxyethylene sorbitan monosterate), and up to 10% (v/v) dimethyl sulfoxide (DMSO) in a volume of 10 ml/kg. Blood was sampled from the tail vein at three hours, six, eight, twenty-four, and thirty hours post-administration (the first administration) of the particular compound in non-fasted conditions. Experiments 3-5 also sampled blood at fifty-four hours post-administration (the first administration) of the particular compound in non-fasted conditions. Blood samples were analyzed for plasma glucose levels. Individual body weights and mean food consumption (each cage) were also measured daily.
The isolated test substances were prepared as described previously (vide supra). Metformin (1,1-dimethylbiguanide), carboxymethyl cellulose and Tween 60 were purchased from Sigma Chemical Co. (St. Louis, Mo., USA; catalog #'s D-5035, C-4888, and p-1629, respectively). Plasma glucose levels were determined colorimetrically using glucose oxidase (Sigma Chemical Co.; Sigma catalog #315). Significant differences between groups (comparing compound-treated to vehicle-treated) were evaluated using analysis of variance and Fisher's post-hoc test.
Vehicle, metformin (250 mg/kg) or enriched extract (1000 mg/kg) were given to db/db mice at 0(initial), 8, 24, 32, 48, 56, 72, 80, and 96 hours post initial dose.
Plasma glucose levels were measured at baseline, 3 (day 1), 51 hours (Day 3), and 99 hours (Day 5).

[2] = Body weights and food consumption in diabetic db/db mice; format: in vivo
Method: as §1

Compound: 3-hydroxy-4-(3-methyl-2-butenyl)-5-methoxystilbene-2-carboxylic acid [Compound C]
- mean glucose levels declined from the baseline value ([1]; Tables 4 and 6, 125 mg/kg, fifty-four hours after initial dosing, value = size of decline): 60.4 mg/dL
- mean glucose levels declined from the baseline values ([1]; Tables 4 and 6, 250 mg/kg, fifty-four hours after initial dosing, value = size of decline): 122.0 mg/dL

Compound: COc1cc(O)cc(/C=C/c2ccccc2)c1 [Compound B, 3-hydroxy-5-methoxystilbene]
- Change in Glucose (mg/dL) 3 h ([1]; 250 mg/kg oral, dosed at 0, 8 and 24 h, 3 h after initial dose, vehicle −8.0, Table 1): -35.3 mg/dL
- Change in Glucose (mg/dL) 6 h ([1]; 250 mg/kg oral, dosed at 0, 8 and 24 h, 6 h after initial dose, vehicle 64.5, Table 1): +29.3 mg/dL
- Change in Glucose (mg/dL) 8 h ([1]; 250 mg/kg oral, dosed at 0, 8 and 24 h, 8 h after initial dose, vehicle 79.5, Table 2): +52.2 mg/dL
- Change in Glucose (mg/dL) 24 h ([1]; 250 mg/kg oral, dosed at 0, 8 and 24 h, 24 h after initial dose, vehicle 18.6, Table 2): -50.6 mg/dL
- Change in Glucose (mg/dL) 30 h ([1]; 250 mg/kg oral, dosed at 0, 8 and 24 h, 30 h after initial dose, Table 2): +36.5 mg/dL
- Food Intake (g/mouse) 0-24 h ([2]; 250 mg/kg, 0-24 h, vehicle 6.8, Table 3): 5.9 g/mouse
- Body weight (g/mouse) (mean) 0 h ([2]; 250 mg/kg, vehicle 38.0 ± 0.8, Table 3): 37.8 ± 0.4 g/mouse
- Body weight (g/mouse) (mean) 24 hr ([2]; 250 mg/kg, 24 hr, vehicle 37.8 ± 0.8, Table 3): 37.8 ± 0.4 g/mouse

Compound: COc1cc(O)cc(CCc2ccccc2)c1CCC(C)C [Compound F]
- Food Intake (g/mouse) 0-48 h ([2]; 125 mg/kg, 0-48 h, vehicle 6.1, Table 11): 5.8 g/mouse
- Body weight (g/mouse) (mean) 0 h ([2]; 125 mg/kg, vehicle 39.4 ± 0.4, Table 11): 39.3 ± 0.8 g/mouse
- Body weight (g/mouse) (mean) 48 hr ([2]; 125 mg/kg, 48 hr, vehicle 40.1 ± 0.4, Table 11): 39.8 ± 0.8 g/mouse
